Experimental findings from patent publication US20250230147A1, “LACTAMS AS CBL-B INHIBITORS” (Genentech, Inc., priority 2021, published 2025) are described below.

What is called IC50 is the concentration needed to halve the response being measured.

Structures can show the parent of a compound that is named as a salt.

Assay [1] deals with Cbl-b (Homo sapiens (Human), UniProt Q13191). Nature of the assay: Cbl-b LCK Ub TR-FRET assay (Cbl-b Lck HTRF). In kind it is biochemical. The method in brief:
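TR-FRET (340 nm excitation, 615/665 nm emission) read after adding HA-ubiquitin–UBE2D2 thioester, anti-HA-D2 and streptavidin-Eu. Beforehand, compounds incubated 60 min with biotinylated Cbl-b, then 90 min with His-LCK and ATP (1 mM in 2× mix); IC50 from 10 concentrations, DMSO high and no-LCK low controls.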
For orientation: Time-resolved FRET reads energy transfer from a long-lived donor to a nearby acceptor.

For assay [2], the target named is c-Cbl (Homo sapiens (Human), UniProt P22681). Nature of the assay: C-Cbl LCK Ub TR-FRET assay (c-cbl Lck HTRF). The format is biochemical. Conditions: for (fold-selectivity): C-cbl Lck HTRF IC50 relative to Cbl-b Lck HTRF IC50. The method in brief: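 After the ubiquitination reaction, detection mixture was added and plates incubated 20 min at room temperature before reading. IC50 values were calculated with wells lacking LCK as the low control and DMSO as the high control.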
Chain of c-Cbl (P22681 47-435): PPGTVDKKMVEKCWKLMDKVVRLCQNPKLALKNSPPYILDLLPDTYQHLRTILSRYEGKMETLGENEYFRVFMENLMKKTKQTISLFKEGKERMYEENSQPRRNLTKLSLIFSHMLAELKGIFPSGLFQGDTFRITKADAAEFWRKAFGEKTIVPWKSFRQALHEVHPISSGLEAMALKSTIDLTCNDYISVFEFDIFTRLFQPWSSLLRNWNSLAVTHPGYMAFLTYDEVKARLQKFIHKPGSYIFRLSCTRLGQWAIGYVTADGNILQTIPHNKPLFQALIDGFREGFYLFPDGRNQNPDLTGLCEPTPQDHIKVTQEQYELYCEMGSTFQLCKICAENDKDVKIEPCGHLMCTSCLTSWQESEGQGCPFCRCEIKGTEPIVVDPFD

Chain of Cbl-b (Q13191 40-426): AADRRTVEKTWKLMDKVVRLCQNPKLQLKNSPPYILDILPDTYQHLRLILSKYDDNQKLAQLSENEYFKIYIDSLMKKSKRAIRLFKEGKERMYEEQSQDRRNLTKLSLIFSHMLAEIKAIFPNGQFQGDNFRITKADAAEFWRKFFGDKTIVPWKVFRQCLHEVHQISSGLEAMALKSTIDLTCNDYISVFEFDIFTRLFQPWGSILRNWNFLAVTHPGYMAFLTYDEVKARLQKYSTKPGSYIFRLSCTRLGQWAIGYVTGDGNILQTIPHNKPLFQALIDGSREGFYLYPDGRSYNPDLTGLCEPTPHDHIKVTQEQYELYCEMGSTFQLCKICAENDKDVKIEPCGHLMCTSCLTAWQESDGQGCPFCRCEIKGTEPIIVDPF

Turning to `Cn1cnnc1CC1(c2ccnc(N3Cc4c(cc(CNC5(C)CCC5)cc4C(F)(F)F)C3=O)c2)CCC1` [Compound 326, 2-(4-(1-((4-methyl-4H-1,2,4-triazol-3-yl)methyl)cyclobutyl)pyridin-2-yl)-6-(((1-methylcyclobutyl)amino)methyl)-4-(trifluoromethyl)isoindolin-1-one], the IC50 in assay [1] is 15 nM; in assay [2] it was 16 nM. Further, in assay [2], the “(fold-selectivity)” value is reported as “(1.1x)”.

As to `CCNc1cc(C2(Cc3nncn3C)COC2)cc(N2Cc3c(cc(CN4CCN(C)C[C@@H]4C(C)C)cc3C(F)(F)F)C2=O)n1` [Compound 291, (S)-2-(6-(ethylamino)-4-(3-((4-methyl-4H-1,2,4-triazol-3-yl)methyl)oxetan-3-yl)pyridin-2-yl)-6-((2-isopropyl-4-methylpiperazin-1-yl)methyl)-4-(trifluoromethyl)isoindolin-1-one], 12 nM corresponded to half-maximal inhibition in assay [1] (IC50). In addition, in assay [2], the concentration for half-maximal inhibition (IC50) came to 8.2 nM and the “(fold-selectivity)” value is recorded as “(0.69x)”.

Take `CN1CCN(Cc2cc3c(c(C(F)(F)F)c2)CN(c2cccc(C4(Cc5nncn5C)CC(F)(F)C4)c2)C3=O)[C@H](C2CC2)C1` [Compound 433, (R)-6-((2-cyclopropyl-4-methylpiperazin-1-yl)methyl)-2-(3-(3,3-difluoro-1-((4-methyl-4H-1,2,4-triazol-3-yl)methyl)cyclobutyl)phenyl)-4-(trifluoromethyl)isoindolin-1-one]: the half-inhibitory concentration (IC50) in assay [1] stood at 94 nM. Also, in assay [2], the IC50 came to 120 nM and the “(fold-selectivity)” value is “(1.3x)”.

Turning to `Cn1cnnc1[C@@H](F)C1(c2cccc(N3Cc4c(cc(CN5CCC(F)(CO)CC5)cc4C(F)(F)F)C3=O)c2)COC1` [Compound 134, (S)-2-(3-(3-(fluoro(4-methyl-4H-1,2,4-triazol-3-yl)methyl)oxetan-3-yl)phenyl)-6-((4-fluoro-4-(hydroxymethyl)piperidin-1-yl)methyl)-4-(trifluoromethyl)isoindolin-1-one], half-maximal inhibition in assay [1] (IC50) required 210 nM. For the same compound, in assay [2], half-maximal inhibition (IC50) was put at 670 nM and the “(fold-selectivity)” value was found to be 3.3x.

Regarding `CC(C)[C@H]1CN(Cc2cc3c(c(C(F)(F)F)c2)CN(c2cccc(C4([C@H](F)c5nncn5C)COC4)c2)C3=O)CCN1` [Compound 91], it took 140 nM to reach half-maximal inhibition in assay [1] (IC50). In assay [2], it took 170 nM to reach half-maximal inhibition (IC50) and the “(fold-selectivity)” value was found to be 1.2x.

Turning to `CCc1cc(C2(Cc3nncn3C)CCC2)cc(N2Cc3c(cc(CNC4(C)CCC4)cc3C(F)(F)F)C2=O)n1` [Compound 361, 2-(6-ethyl-4-(1-((4-methyl-4H-1,2,4-triazol-3-yl)methyl)cyclobutyl)pyridin-2-yl)-6-(((1-methylcyclobutyl)amino)methyl)-4-(trifluoromethyl)isoindolin-1-one], the IC50 in assay [1] is 13 nM. In addition, in assay [2], the IC50 turned out to be 9.6 nM and the “(fold-selectivity)” value was “(0.76x)”.

With `Cn1cnnc1CC1(c2cccc(N3Cc4c(cc(CN5CCNCC5)cc4C(F)(F)F)C3=O)c2)CC(F)(F)C1` [Compound 437, 2-(3-(3,3-difluoro-1-((4-methyl-4H-1,2,4-triazol-3-yl)methyl)cyclobutyl)phenyl)-6-(piperazin-1-ylmethyl)-4-(trifluoromethyl)isoindolin-1-one], the 50% inhibitory concentration (IC50) in assay [1] worked out at 62 nM. Moreover, in assay [2], the IC50 amounted to 900 nM and the “(fold-selectivity)” value is on record as “(0.97x)”.

On to `CC(C)[C@H]1CN(C)CCN1Cc1cc2c(c(C(F)(F)F)c1)CN(c1cccc(C3(C(F)(F)c4nncn4C)CC(F)(F)C3)c1)C2=O` [Compound 432, (S)-2-(3-(1-(difluoro(4-methyl-4H-1,2,4-triazol-3-yl)methyl)-3,3-difluorocyclobutyl)phenyl)-6-((2-isopropyl-4-methylpiperazin-1-yl)methyl)-4-(trifluoromethyl)isoindolin-1-one], for which the IC50 in assay [1] turned out to be 17 nM. Further, in assay [2], half-maximal inhibition (IC50) required 13 nM and the “(fold-selectivity)” value is “(0.78x)”.

`Cn1cnnc1[C@@H](F)C1(c2cccc(N3Cc4c(cc(CN5CC6(COC6)C5)cc4C(F)(F)F)C3=O)c2)COC1` [Compound 10, (S)-6-(2-oxa-6-azaspiro[3.3]heptan-6-ylmethyl)-2-(3-(3-(fluoro(4-methyl-4H-1,2,4-triazol-3-yl)methyl)oxetan-3-yl)phenyl)-4-(trifluoromethyl)isoindolin-1-one]: in assay [1], the IC50 was 500 nM. In assay [2], inhibition was half-maximal at 1100 nM (IC50) and the “(fold-selectivity)” value amounted to 2.3x.

With `Cc1ccn(CC2(c3cccc(N4Cc5c(cc(CN6CCN(C)C[C@@H]6C(C)C)cc5C(F)(F)F)C4=O)c3)COC2)n1` [Compound 264, (S)-6-((2-isopropyl-4-methylpiperazin-1-yl)methyl)-2-(3-(3-((3-methyl-1H-pyrazol-1-yl)methyl)oxetan-3-yl)phenyl)-4-(trifluoromethyl)isoindolin-1-one], the IC50 in assay [1] was found to be 7100 nM. Moreover, in assay [2], the IC50 was 11000 nM and the “(fold-selectivity)” value is recorded as “(1.5x)”.

With `C[C@H](c1cc2c(c(C(F)(F)F)c1)CN(c1cccc(C3([C@@H](F)c4nncn4C)COC3)c1)C2=O)N1CC(C)(F)C1` [Compound 109, 2-(3-(3((R)-fluoro(4-methyl-4H-1,2,4-triazol-3-yl)methyl)oxetan-3-yl)phenyl)-6-((R)-1-(3-fluoro-3-methylazetidin-1-yl)ethyl)-4-(trifluoromethyl)isoindolin-1-one], in assay [1], the concentration for half-maximal inhibition (IC50) was determined as 44 nM. Besides, in assay [2], the midpoint of inhibition, the IC50, lay at 85 nM and the “(fold-selectivity)” value was found to be 1.9x.

In the case of `Cc1ccnn1CC1(c2cccc(N3Cc4c(cc(CN5CCN(C)C[C@@H]5C(C)C)cc4C(F)(F)F)C3=O)c2)COC1` [Compound 263, (S)-6-((2-isopropyl-4-methylpiperazin-1-yl)methyl)-2-(3-(3-((5-methyl-1H-pyrazol-1-yl)methyl)oxetan-3-yl)phenyl)-4-(trifluoromethyl)isoindolin-1-one], inhibition in assay [1] was half-maximal at 45 nM (IC50). For the same compound, in assay [2], the IC50 amounted to 59 nM and the “(fold-selectivity)” value was “(1.3x)”.

With `CO[C@H]1CCCN(Cc2cc3c(c(C(F)(F)F)c2)CN(c2cccc(C4(Cc5nncn5C)CC(F)(F)C4)c2)C3=O)C1` [Compound 443, (S)-2-(3-(3,3-difluoro-1-((4-methyl-4H-1,2,4-triazol-3-yl)methyl)cyclobutyl)phenyl)-6-((3-methoxypiperidin-1-yl)methyl)-4-(trifluoromethyl)isoindolin-1-one], the results for the IC50 in assay [1] and in assay [2] were 59 nM and 180 nM, respectively. For the same compound, the “(fold-selectivity)” value in assay [2] is recorded as “(2.8x)”.

On to `Cn1cnnc1CC1(c2cc(NCC(F)(F)CO)nc(N3Cc4c(cc(CNC5(C)CCC5)cc4C(F)(F)F)C3=O)c2)CCC1` [Compound 317, 2-(6-((2,2-difluoro-3-hydroxypropyl)amino)-4-(1-((4-methyl-4H-1,2,4-triazol-3-yl)methyl)cyclobutyl)pyridin-2-yl)-6-(((1-methylcyclobutyl)amino)methyl)-4-(trifluoromethyl)isoindolin-1-one], for which the IC50 was 22 nM in assay [1] and 27 nM in assay [2]. In assay [2], the “(fold-selectivity)” value is “(1.2x)”.

With `Cn1cnnc1CC1(c2cc(NCC(N)=O)nc(N3Cc4c(cccc4C(F)(F)F)C3=O)c2)COC1` [Compound 491, 2-((4-(3-((4-methyl-4H-1,2,4-triazol-3-yl)methyl)oxetan-3-yl)-6-(1-oxo-4-(trifluoromethyl)isoindolin-2-yl)pyridin-2-yl)amino)acetamide], the IC50 in assay [1] was 8600 nM; in assay [2], 20000 nM. In assay [2], the “(fold-selectivity)” value is “(2.3x)”.

Turning to `Cn1cnnc1CC(F)(F)c1cccc(N2Cc3c(cccc3C(F)(F)F)C2=O)c1` [Compound 15, 2-(3-(1,1-difluoro-2-(4-methyl-4H-1,2,4-triazol-3-yl)ethyl)phenyl)-4-(trifluoromethyl)isoindolin-1-one], the IC50 in assay [1] amounted to 3500 nM. In assay [2], half-maximal inhibition (IC50) was put at 6400 nM and the “(fold-selectivity)” value stood at 1.8x.

With `CC[C@@H]1CN(Cc2cc3c(c(C(F)(F)F)c2)CN(c2cccc(C4(Cc5nncn5C)CC(F)(F)C4)c2)C3=O)CCN1` [Compound 426, (R)-2-(3-(3,3-difluoro-1-((4-methyl-4H-1,2,4-triazol-3-yl)methyl)cyclobutyl)phenyl)-6-((3-ethylpiperazin-1-yl)methyl)-4-(trifluoromethyl)isoindolin-1-one], the IC50 in assay [1] amounted to 35 nM; in assay [2] it was 26 nM. In addition, the “(fold-selectivity)” value in assay [2] is recorded as “(0.73x)”.

`C[C@H](N)c1cc2c(c(C(F)(F)F)c1)CN(c1cccc(C3([C@@H](F)c4nncn4C)COC3)c1)C2=O` [Compound 192, 6-((S)-1-aminoethyl)-2-(3-(3-((R)-fluoro(4-methyl-4H-1,2,4-triazol-3-yl)methyl)oxetan-3-yl)phenyl)-4-(trifluoromethyl)isoindolin-1-one] returned an IC50 in assay [1] of 32 nM. In addition, in assay [2], the IC50 is 53 nM and the “(fold-selectivity)” value turned out to be 1.6x.

In the case of `Cn1cnnc1[C@@H](F)C1(c2cccc(N3Cc4c(cc(CNCC5CC5)cc4C(F)(F)F)C3=O)c2)CC(F)(F)C1` [Compound 450, (S)-6-(((cyclopropylmethyl)amino)methyl)-2-(3-(3,3-difluoro-1-(fluoro(4-methyl-4H-1,2,4-triazol-3-yl)methyl)cyclobutyl)phenyl)-4-(trifluoromethyl)isoindolin-1-one], the IC50 in assay [1] worked out at 15 nM. In addition, in assay [2], the IC50 was determined as 14 nM and the “(fold-selectivity)” value is “(0.95x)”.

For the compound `CCNC(=O)CNc1cc(C2(Cc3nncn3C)CCC2)cc(N2Cc3c(cc(CNC4(C)CCC4)cc3C(F)(F)F)C2=O)n1` [Compound 307, N-ethyl-2-((4-(1-((4-methyl-4H-1,2,4-triazol-3-yl)methyl)cyclobutyl)-6-(6-(((1-methylcyclobutyl)amino)methyl)-1-oxo-4-(trifluoromethyl)isoindolin-2-yl)pyridin-2-yl)amino)acetamide formate], the IC50 is 180 nM in assay [1] and 310 nM in assay [2].
